Assay results reported in patent US20250296938A1, “Compounds that Interact with the Ras Superfamily for the Treatment of Cancers, Inflammatory Diseases, Rasopathies, and Fibrotic Disease” (SHY Therapeutics, LLC, priority 2018, published 2025).

molecular target: Rho-A (Homo sapiens, UniProt P61586); test: Ras GTP binding domain inhibition assay (Cy3-GTP/Cy5-GTP competition); details: with SOS, read-out: Rho-A + SOS: % inh.
How it was run: (§1)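 Compounds tested at 20 μM or in serial dilution for IC50 against nickel-captured His-tagged GTPase, 3 hours at room temperature, with or without His-Sos GEF added for last hour. Fluorescent GTP then added at 100 nM for 45 minutes; wells washed, bound label measured by fluorescence.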

Compound | inhibition at 20 µM [%]
CO[C@H]1CC[C@@H](Nc2nc(-c3nccn3C)nc3sc(-c4ccn(C(C)C)n4)c(-c4ccccc4)c23)C1 [drawing 1047] | 76 to 100
COc1nc(-c2ccccn2)nc2c(-c3ccccn3)csc12 [drawing 1048] | 26 to 50
CO[C@H]1C[C@@H](Nc2nc(-c3nccn3C)nc3sc(-c4ccn(C)n4)c(C)c23)C1 [drawing 1049] | 76 to 100
CO[C@H]1CC[C@@H](Nc2nc(-c3nccn3C)nc3sc(-c4ccn(C)n4)c(C)c23)C1 [drawing 1050] | 76 to 100
Cc1c(-c2ccn(C)n2)sc2nc(-c3nccn3C)nc(NCCCS(C)(=O)=O)c12 [drawing 1051] | 51 to 75
Cc1c(-c2ccn(C)n2)sc2nc(-c3nccn3C)nc(NCCCC(=O)N(C)C)c12 [drawing 1052] | 76 to 100
Cc1c(-c2ccn(C)n2)sc2nc(-c3nccn3C)nc(NCCOC(=O)N(C)C)c12 [drawing 1053] | 51 to 75
CO[C@H]1C[C@@H](Nc2nc(-c3nccn3C)nc3sc(C(=O)NC(C)C)c(-c4ccccc4)c23)C1 [drawing 1055] | 51 to 75
COCCNC(=O)c1sc2nc(-c3nccn3C)nc(N[C@H]3C[C@@H](OC)C3)c2c1-c1ccccc1 [drawing 1056] | 51 to 75
CO[C@H]1C[C@@H](Nc2nc(-c3nccn3C)nc3sc(C(=O)N4CCOCC4)c(-c4ccccc4)c23)C1 [drawing 1057] | 51 to 75
COC1CCN(C(=O)c2sc3nc(-c4nccn4C)nc(N[C@H]4C[C@@H](OC)C4)c3c2-c2ccccc2)C1 (stereo partly drawn) [drawing 1058] | 76 to 100
CO[C@H]1CC[C@@H](Nc2nc(-c3nccn3C)nc3sc(C(=O)NC(C)C)c(-c4ccccc4)c23)C1 [drawing 1059] | 76 to 100

same assay, conditions: without SOS, read-out: Rho-A: % inh.

Compound | inhibition at 20 µM [%]
CO[C@H]1CC[C@@H](Nc2nc(-c3nccn3C)nc3sc(-c4ccn(C(C)C)n4)c(-c4ccccc4)c23)C1 [drawing 1047] | 76 to 100
COc1nc(-c2ccccn2)nc2c(-c3ccccn3)csc12 [drawing 1048] | 26 to 50
CO[C@H]1C[C@@H](Nc2nc(-c3nccn3C)nc3sc(-c4ccn(C)n4)c(C)c23)C1 [drawing 1049] | 76 to 100
CO[C@H]1CC[C@@H](Nc2nc(-c3nccn3C)nc3sc(-c4ccn(C)n4)c(C)c23)C1 [drawing 1050] | 76 to 100
Cc1c(-c2ccn(C)n2)sc2nc(-c3nccn3C)nc(NCCCS(C)(=O)=O)c12 [drawing 1051] | 51 to 75
Cc1c(-c2ccn(C)n2)sc2nc(-c3nccn3C)nc(NCCCC(=O)N(C)C)c12 [drawing 1052] | 76 to 100
Cc1c(-c2ccn(C)n2)sc2nc(-c3nccn3C)nc(NCCOC(=O)N(C)C)c12 [drawing 1053] | 76 to 100
CO[C@H]1C[C@@H](Nc2nc(-c3nccn3C)nc3sc(C(=O)NC(C)C)c(-c4ccccc4)c23)C1 [drawing 1055] | 51 to 75
COCCNC(=O)c1sc2nc(-c3nccn3C)nc(N[C@H]3C[C@@H](OC)C3)c2c1-c1ccccc1 [drawing 1056] | 51 to 75
CO[C@H]1C[C@@H](Nc2nc(-c3nccn3C)nc3sc(C(=O)N4CCOCC4)c(-c4ccccc4)c23)C1 [drawing 1057] | 51 to 75
COC1CCN(C(=O)c2sc3nc(-c4nccn4C)nc(N[C@H]4C[C@@H](OC)C4)c3c2-c2ccccc2)C1 (stereo partly drawn) [drawing 1058] | 26 to 50
CO[C@H]1CC[C@@H](Nc2nc(-c3nccn3C)nc3sc(C(=O)NC(C)C)c(-c4ccccc4)c23)C1 [drawing 1059] | 76 to 100

molecular target: Rac-1 (Homo sapiens, UniProt P63000); test: as above; details: with SOS, read-out: Rac-1 + SOS: % inh.
How it was run: as §1

Compound | inhibition at 20 µM [%]
CO[C@H]1CC[C@@H](Nc2nc(-c3nccn3C)nc3sc(-c4ccn(C(C)C)n4)c(-c4ccccc4)c23)C1 [drawing 1047] | 51 to 75
COc1nc(-c2ccccn2)nc2c(-c3ccccn3)csc12 [drawing 1048] | 26 to 50
CO[C@H]1C[C@@H](Nc2nc(-c3nccn3C)nc3sc(-c4ccn(C)n4)c(C)c23)C1 [drawing 1049] | 51 to 75
CO[C@H]1CC[C@@H](Nc2nc(-c3nccn3C)nc3sc(-c4ccn(C)n4)c(C)c23)C1 [drawing 1050] | 76 to 100
Cc1c(-c2ccn(C)n2)sc2nc(-c3nccn3C)nc(NCCCS(C)(=O)=O)c12 [drawing 1051] | 51 to 75
Cc1c(-c2ccn(C)n2)sc2nc(-c3nccn3C)nc(NCCCC(=O)N(C)C)c12 [drawing 1052] | 76 to 100
Cc1c(-c2ccn(C)n2)sc2nc(-c3nccn3C)nc(NCCOC(=O)N(C)C)c12 [drawing 1053] | 51 to 75
CO[C@H]1C[C@@H](Nc2nc(-c3nccn3C)nc3sc(C(=O)NC(C)C)c(-c4ccccc4)c23)C1 [drawing 1055] | 76 to 100
COCCNC(=O)c1sc2nc(-c3nccn3C)nc(N[C@H]3C[C@@H](OC)C3)c2c1-c1ccccc1 [drawing 1056] | 76 to 100
CO[C@H]1C[C@@H](Nc2nc(-c3nccn3C)nc3sc(C(=O)N4CCOCC4)c(-c4ccccc4)c23)C1 [drawing 1057] | 76 to 100
COC1CCN(C(=O)c2sc3nc(-c4nccn4C)nc(N[C@H]4C[C@@H](OC)C4)c3c2-c2ccccc2)C1 (stereo partly drawn) [drawing 1058] | 51 to 75
CO[C@H]1CC[C@@H](Nc2nc(-c3nccn3C)nc3sc(C(=O)NC(C)C)c(-c4ccccc4)c23)C1 [drawing 1059] | 76 to 100

same assay, conditions: without SOS, read-out: Rac-1: % inh.

Compound | inhibition at 20 µM [%]
CO[C@H]1CC[C@@H](Nc2nc(-c3nccn3C)nc3sc(-c4ccn(C(C)C)n4)c(-c4ccccc4)c23)C1 [drawing 1047] | 51 to 75
COc1nc(-c2ccccn2)nc2c(-c3ccccn3)csc12 [drawing 1048] | 26 to 50
CO[C@H]1C[C@@H](Nc2nc(-c3nccn3C)nc3sc(-c4ccn(C)n4)c(C)c23)C1 [drawing 1049] | 51 to 75
CO[C@H]1CC[C@@H](Nc2nc(-c3nccn3C)nc3sc(-c4ccn(C)n4)c(C)c23)C1 [drawing 1050] | 76 to 100
Cc1c(-c2ccn(C)n2)sc2nc(-c3nccn3C)nc(NCCCS(C)(=O)=O)c12 [drawing 1051] | 76 to 100
Cc1c(-c2ccn(C)n2)sc2nc(-c3nccn3C)nc(NCCCC(=O)N(C)C)c12 [drawing 1052] | 76 to 100
Cc1c(-c2ccn(C)n2)sc2nc(-c3nccn3C)nc(NCCOC(=O)N(C)C)c12 [drawing 1053] | 76 to 100
CO[C@H]1C[C@@H](Nc2nc(-c3nccn3C)nc3sc(C(=O)NC(C)C)c(-c4ccccc4)c23)C1 [drawing 1055] | 76 to 100
COCCNC(=O)c1sc2nc(-c3nccn3C)nc(N[C@H]3C[C@@H](OC)C3)c2c1-c1ccccc1 [drawing 1056] | 51 to 75
CO[C@H]1C[C@@H](Nc2nc(-c3nccn3C)nc3sc(C(=O)N4CCOCC4)c(-c4ccccc4)c23)C1 [drawing 1057] | 51 to 75
COC1CCN(C(=O)c2sc3nc(-c4nccn4C)nc(N[C@H]4C[C@@H](OC)C4)c3c2-c2ccccc2)C1 (stereo partly drawn) [drawing 1058] | 76 to 100
CO[C@H]1CC[C@@H](Nc2nc(-c3nccn3C)nc3sc(C(=O)NC(C)C)c(-c4ccccc4)c23)C1 [drawing 1059] | 76 to 100

molecular target: T1, KRas G12D mutant (Homo sapiens, UniProt P01116, G12D); test: as above; details: at 20 μM, with SOS; read-out: KRas G12D mutant + SOS: % inh.
T1 construct: fused on or other part: His tag, used for capture on nickel-coated plates
How it was run: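 First, His-tagged protein is coated on nickel wells overnight at 4 °C. Next, compound (20 μM single point or serial dilution) is added for 3 h at room temperature, with or without Sos exchange factor in the last hour. Finally, 100 nM labelled GTP binds for 45 min and retained signal is measured.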

Compound | inhibition at 20 µM [%]
CO[C@H]1CC[C@@H](Nc2nc(-c3nccn3C)nc3sc(-c4ccn(C(C)C)n4)c(-c4ccccc4)c23)C1 [drawing 1047] | 51 to 75
COc1nc(-c2ccccn2)nc2c(-c3ccccn3)csc12 [drawing 1048] | 1 to 25
CO[C@H]1C[C@@H](Nc2nc(-c3nccn3C)nc3sc(-c4ccn(C)n4)c(C)c23)C1 [drawing 1049] | 51 to 75
CO[C@H]1CC[C@@H](Nc2nc(-c3nccn3C)nc3sc(-c4ccn(C)n4)c(C)c23)C1 [drawing 1050] | 51 to 75
Cc1c(-c2ccn(C)n2)sc2nc(-c3nccn3C)nc(NCCCS(C)(=O)=O)c12 [drawing 1051] | 76 to 100
Cc1c(-c2ccn(C)n2)sc2nc(-c3nccn3C)nc(NCCCC(=O)N(C)C)c12 [drawing 1052] | 76 to 100
Cc1c(-c2ccn(C)n2)sc2nc(-c3nccn3C)nc(NCCOC(=O)N(C)C)c12 [drawing 1053] | 76 to 100
CO[C@H]1C[C@@H](Nc2nc(-c3nccn3C)nc3sc(C(=O)NC(C)C)c(-c4ccccc4)c23)C1 [drawing 1055] | 51 to 75
COCCNC(=O)c1sc2nc(-c3nccn3C)nc(N[C@H]3C[C@@H](OC)C3)c2c1-c1ccccc1 [drawing 1056] | 51 to 75
CO[C@H]1C[C@@H](Nc2nc(-c3nccn3C)nc3sc(C(=O)N4CCOCC4)c(-c4ccccc4)c23)C1 [drawing 1057] | 51 to 75
COC1CCN(C(=O)c2sc3nc(-c4nccn4C)nc(N[C@H]4C[C@@H](OC)C4)c3c2-c2ccccc2)C1 (stereo partly drawn) [drawing 1058] | 51 to 75
CO[C@H]1CC[C@@H](Nc2nc(-c3nccn3C)nc3sc(C(=O)NC(C)C)c(-c4ccccc4)c23)C1 [drawing 1059] | 76 to 100

same assay, conditions: at 20 μM, without SOS; read-out: KRas G12D mutant: % inh.

Compound | inhibition at 20 µM [%]
CO[C@H]1CC[C@@H](Nc2nc(-c3nccn3C)nc3sc(-c4ccn(C(C)C)n4)c(-c4ccccc4)c23)C1 [drawing 1047] | 51 to 75
COc1nc(-c2ccccn2)nc2c(-c3ccccn3)csc12 [drawing 1048] | 26 to 50
CO[C@H]1C[C@@H](Nc2nc(-c3nccn3C)nc3sc(-c4ccn(C)n4)c(C)c23)C1 [drawing 1049] | 51 to 75
CO[C@H]1CC[C@@H](Nc2nc(-c3nccn3C)nc3sc(-c4ccn(C)n4)c(C)c23)C1 [drawing 1050] | 26 to 50
Cc1c(-c2ccn(C)n2)sc2nc(-c3nccn3C)nc(NCCCS(C)(=O)=O)c12 [drawing 1051] | 76 to 100
Cc1c(-c2ccn(C)n2)sc2nc(-c3nccn3C)nc(NCCCC(=O)N(C)C)c12 [drawing 1052] | 51 to 75
Cc1c(-c2ccn(C)n2)sc2nc(-c3nccn3C)nc(NCCOC(=O)N(C)C)c12 [drawing 1053] | 76 to 100
CO[C@H]1C[C@@H](Nc2nc(-c3nccn3C)nc3sc(C(=O)NC(C)C)c(-c4ccccc4)c23)C1 [drawing 1055] | 51 to 75
COCCNC(=O)c1sc2nc(-c3nccn3C)nc(N[C@H]3C[C@@H](OC)C3)c2c1-c1ccccc1 [drawing 1056] | 51 to 75
CO[C@H]1C[C@@H](Nc2nc(-c3nccn3C)nc3sc(C(=O)N4CCOCC4)c(-c4ccccc4)c23)C1 [drawing 1057] | 51 to 75
COC1CCN(C(=O)c2sc3nc(-c4nccn4C)nc(N[C@H]4C[C@@H](OC)C4)c3c2-c2ccccc2)C1 (stereo partly drawn) [drawing 1058] | 51 to 75
CO[C@H]1CC[C@@H](Nc2nc(-c3nccn3C)nc3sc(C(=O)NC(C)C)c(-c4ccccc4)c23)C1 [drawing 1059] | 76 to 100
